Test results from patent publication US8685977B2, “Chemical compounds” (Pfizer Limited, priority 2010, dated 2014).

Target: T1, Nav1.7 (or SCN9A) channel (Homo sapiens, UniProt Q15858)
T1 construct: expressed in transfected cells
Assay: Nav1.7 PatchXpress 7000 automated electrophysiology assay (HEK cells stably expressing hSCN9A)
Assay type: cell-based
Settings: voltage-clamped at V1/2 of inactivation, read-out: Nav1.7 EIC50
Protocol: The ability of the compounds of formula (I) to block the Nav1.7 (or SCN9A) channel was measured using the assays described below.
Human Embryonic Kidney (HEK) cells were transfected with an hSCN9A construct using lipofectamine reagent (Invitrogen), using standard techniques. Cells stably expressing the hSCN9A constructs were identified by their resistance to G-418 (400 μg/ml). Clones were screened for expression using the whole-cell voltage-clamp technique.
HEK cells stably transfected with hSCN9A were maintained in DMEM medium supplemented with 10% heat-inactivated fetal bovine serum and 400 μg/ml G-418 in an incubator at 37° C. with a humidified atmosphere of 10% CO2. For HTS, cells were harvested from flasks by trypsinization and replated in an appropriate multi-well plate (typically 96 or 384 wells/plate) such that confluence would be achieved within 24 hours of plating. For electrophysiological studies, cells were removed from the culture flask by brief trypsinization and re-plated at low density onto glass cover slips. Cells were typically used for electrophysiological experiments within 24 to 72 hours after plating.
Cover slips containing HEK cells expressing hSCN9A were placed in a bath on the stage of an inverted microscope and perfused (approximately 1 ml/minutes) with extracellular solution of the following composition: 138 mM NaCl, 2 mM CaCl2, 5.4 mM KCl, 1 mM MgCl2, 10 mM glucose, and 10 mM HEPES, pH 7.4, with NaOH. […] The osmolarity of the extracellular and intracellular solutions was 300 mOsm/kg and 295 mOsm/kg, respectively. All recordings were made at room temperature (22-24° C.) using AXOPATCH 200B amplifiers and PCLAMP software (Axon Instruments, Burlingame, Calif.).
HEK cells stably transfected with hSCN9A were viewed under Hoffman contrast optics and placed in front of an array of flow pipes emitting either control or compound-containing extracellular solutions. All compounds were dissolved in dimethyl sulfoxide to make 10 mM stock solutions, which were then diluted into extracellular solution to attain the final concentrations desired. […] The voltage-dependence of inactivation was determined by applying a series of depolarizing prepulses (8 sec long in 10 mV increments) from a negative holding potential. The voltage was then immediately stepped to 0 mV to assess the magnitude of the sodium current. Currents elicited at 0 mV were plotted as a function of prepulse potential to allow estimation of the voltage at which 50% of the channels were inactivated (midpoint of inactivation or V1/2). Compounds were tested for their ability to inhibit hSCN9A sodium channels by activating the channel with a 20 msec voltage step to 0 mV following an 8 second conditioning prepulse to the empirically determined V1/2. Compound effect (% inhibition) was determined by difference in current amplitude before and after application of test compounds. For ease of comparison, “estimated IC-50” (EIC50) values were calculated from single point electrophysiology data by the following equation, (tested concentration, uM)×(100-% inhibition/% inhibition). Inhibition values <20% and >80% were excluded from the calculation.
Electrophysiological assays were conducted with PatchXpress 7000 hardware and associated software (Molecular Devices Corp). All assay buffers and solutions were identical to those used in conventional whole-cell voltage clamp experiments described above. hSCN9A cells were grown as above to 50%-80% confluency and harvested by trypsinization. Trypsinized cells were washed and resuspended in extracellular buffer at a concentration of 1×10^6 cells/ml. The onboard liquid handling facility of the PatchXpress was used for dispensing cells and application of test compounds. Determination of the voltage midpoint of inactivation was as described for conventional whole-cell recordings. Cells were then voltage-clamped to the empirically determined V1/2 and current was activated by a 20 msec voltage step to 0 mV. […]

T1 sequence (Q15858 whole entry): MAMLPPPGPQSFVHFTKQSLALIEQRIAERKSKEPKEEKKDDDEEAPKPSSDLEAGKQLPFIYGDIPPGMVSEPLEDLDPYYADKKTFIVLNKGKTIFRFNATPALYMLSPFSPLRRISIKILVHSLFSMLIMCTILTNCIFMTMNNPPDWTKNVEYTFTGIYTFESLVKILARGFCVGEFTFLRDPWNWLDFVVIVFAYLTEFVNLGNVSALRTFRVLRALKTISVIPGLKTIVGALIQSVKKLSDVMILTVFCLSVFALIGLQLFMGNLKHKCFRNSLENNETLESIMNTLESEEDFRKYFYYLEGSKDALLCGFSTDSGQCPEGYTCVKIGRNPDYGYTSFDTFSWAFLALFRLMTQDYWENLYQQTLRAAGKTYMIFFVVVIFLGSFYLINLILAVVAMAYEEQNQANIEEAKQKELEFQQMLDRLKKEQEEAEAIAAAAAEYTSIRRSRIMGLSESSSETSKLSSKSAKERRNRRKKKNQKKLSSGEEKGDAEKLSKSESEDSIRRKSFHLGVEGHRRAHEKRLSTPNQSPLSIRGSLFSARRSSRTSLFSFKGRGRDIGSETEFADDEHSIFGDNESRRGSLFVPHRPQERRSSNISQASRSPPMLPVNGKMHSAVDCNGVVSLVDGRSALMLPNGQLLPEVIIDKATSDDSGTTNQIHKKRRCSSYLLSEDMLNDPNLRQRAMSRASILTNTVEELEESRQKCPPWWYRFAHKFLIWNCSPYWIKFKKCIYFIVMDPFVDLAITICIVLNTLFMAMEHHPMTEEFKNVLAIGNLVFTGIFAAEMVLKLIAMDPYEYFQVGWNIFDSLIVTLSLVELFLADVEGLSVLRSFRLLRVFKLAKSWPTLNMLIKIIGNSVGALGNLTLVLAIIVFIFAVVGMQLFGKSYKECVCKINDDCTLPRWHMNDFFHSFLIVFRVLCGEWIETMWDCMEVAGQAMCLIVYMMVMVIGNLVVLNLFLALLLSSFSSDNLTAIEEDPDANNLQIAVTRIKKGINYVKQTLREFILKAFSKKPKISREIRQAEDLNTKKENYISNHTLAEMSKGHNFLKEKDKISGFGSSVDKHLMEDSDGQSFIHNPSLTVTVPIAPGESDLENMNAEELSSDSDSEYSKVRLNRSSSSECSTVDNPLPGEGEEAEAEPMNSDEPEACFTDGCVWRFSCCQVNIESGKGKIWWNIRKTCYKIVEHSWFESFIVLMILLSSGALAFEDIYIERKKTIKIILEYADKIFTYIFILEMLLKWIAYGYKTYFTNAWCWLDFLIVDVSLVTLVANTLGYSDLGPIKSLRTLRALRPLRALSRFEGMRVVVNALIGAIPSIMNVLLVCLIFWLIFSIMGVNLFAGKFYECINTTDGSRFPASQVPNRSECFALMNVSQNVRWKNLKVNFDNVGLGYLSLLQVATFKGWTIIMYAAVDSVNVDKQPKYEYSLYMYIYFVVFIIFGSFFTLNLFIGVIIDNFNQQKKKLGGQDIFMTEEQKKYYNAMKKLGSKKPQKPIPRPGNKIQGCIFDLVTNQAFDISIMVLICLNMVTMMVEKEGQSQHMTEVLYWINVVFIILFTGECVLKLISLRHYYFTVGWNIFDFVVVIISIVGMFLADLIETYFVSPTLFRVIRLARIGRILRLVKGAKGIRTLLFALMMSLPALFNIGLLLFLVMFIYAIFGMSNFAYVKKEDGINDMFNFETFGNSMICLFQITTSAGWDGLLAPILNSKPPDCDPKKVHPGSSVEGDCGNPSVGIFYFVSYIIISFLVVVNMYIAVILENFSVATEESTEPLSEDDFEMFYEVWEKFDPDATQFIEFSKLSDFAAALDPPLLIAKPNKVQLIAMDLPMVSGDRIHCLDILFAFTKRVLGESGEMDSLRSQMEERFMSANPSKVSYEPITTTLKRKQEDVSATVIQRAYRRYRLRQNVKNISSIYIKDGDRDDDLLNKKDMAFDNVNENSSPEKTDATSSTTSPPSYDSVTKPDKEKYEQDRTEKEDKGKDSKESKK

Compound	IC50 [µM]
COc1cccc(Oc2cc(F)c(C(=O)NS(C)(=O)=O)cc2F)c1 [Example 134, 2,5-difluoro-4-(3-methoxyphenoxy)-N-(methylsulfonyl)benzamide]	> 3
CS(=O)(=O)NC(=O)c1cc(Cl)c(Oc2ccc(C(F)(F)F)cc2-c2ccnnc2)cc1F [Example 313, 5-chloro-2-fluoro-N-(methylsulfonyl)-4-[2-pyridazin-4-yl-4-(trifluoromethyl)phenoxy]benzamide]	9.9
COc1ccc(Oc2cc(F)c(C(=O)NS(C)(=O)=O)cc2F)c(C#N)c1 [Example 116, 4-(2-cyano-4-methoxyphenoxy)-2,5-difluoro-N-(methylsulfonyl)benzamide]	> 3
Cc1ccccc1Oc1ccc(C(=O)NS(C)(=O)=O)cc1 [Example 191, 4-(2-methylphenoxy)-N-(methylsulfonyl)benzamide]	> 10
COc1ccc(C)cc1Oc1ccc(C(=O)NS(C)(=O)=O)cc1 [Example 185, 4-(2-methoxy-5-methylphenoxy)-N-(methylsulfonyl)benzamide]	21
CS(=O)(=O)NC(=O)c1ccc(Oc2ccc(F)cc2)cc1 [Example 309, 4-(4-fluorophenoxy)-N-(methylsulfonyl)benzamide]	18
Cc1ccc(Cl)cc1Oc1ccc(C(=O)NS(C)(=O)=O)cc1 [Example 177, 4-(5-chloro-2-methylphenoxy)-N-(methylsulfonyl)benzamide]	16
CS(=O)(=O)NC(=O)c1cc(F)c(Oc2cc(F)cc(F)c2F)cc1F [Example 97, 2,5-difluoro-N-(methylsulfonyl)-4-(2,3,5-trifluorophenoxy)benzamide]	7
CS(=O)(=O)NC(=O)c1ccc(Oc2cccc(Cl)c2)cc1 [Example 202, 4-(3-chlorophenoxy)-N-(methylsulfonyl)benzamide]	6.9
CCc1cc(F)ccc1Oc1ccc(C(=O)NS(C)(=O)=O)cc1 [Example 35, 4-(2-ethyl-4-fluorophenoxy)-N-(methylsulfonyl)benzamide]	11
CS(=O)(=O)NC(=O)c1cc(F)c(Oc2ccc(F)cc2C2CC2)cc1F [Example 126, 4-(2-cyclopropyl-4-fluorophenoxy)-2,5-difluoro-N-(methylsulfonyl)benzamide]	> 1
COc1cc(Cl)ccc1Oc1ccc(C(=O)NS(C)(=O)=O)c(OC)c1 [Example 40, 4-(4-chloro-2-methoxyphenoxy)-2-methoxy-N-(methylsulfonyl)benzamide]	25
CS(=O)(=O)NC(=O)c1ccc(Sc2ccccc2Cl)cc1 [Example 323, 4-(2-chlorophenylthio)-N-(methylsulfonyl)benzamide]	36
CS(=O)(=O)NC(=O)c1ccc(Oc2ccccc2OCc2ccccc2)cc1 [Example 176, 4-[2-(benzyloxy)phenoxy]-N-(methylsulfonyl)benzamide]	> 10
COc1cc(Cl)ccc1Oc1ccc(C(=O)NS(C)(=O)=O)c(F)c1 [Example 64, 4-(4-chloro-2-methoxyphenoxy)-2-fluoro-N-(methylsulfonyl)benzamide]	> 3
Cc1cccc(Oc2ccc(C(=O)NS(C)(=O)=O)cc2)c1C [Example 184, 4-(2,3-dimethylphenoxy)-N-(methylsulfonyl)benzamide]	24
CS(=O)(=O)NC(=O)c1ccc(Sc2cccc(OC(F)(F)F)c2)cc1 [Example 318, N-(Methylsulfonyl)-4-{[3-(trifluoromethoxy)phenyl]sulfanyl}benzamide]	5.6
CCS(=O)(=O)NC(=O)c1ccc(Oc2cccc(F)c2)cc1 [Example 306, N-(ethylsulfonyl)-4-(3-fluorophenoxy)benzamide]	25
CS(=O)(=O)NC(=O)c1ccc(Oc2ccc(Cl)cc2Cl)cc1 [Example 38, 4-(2,4-dichlorophenoxy)-N-(methylsulfonyl)benzamide]	> 10

The remaining molecules from weak to strong by IC50, led by results:

IC50 [µM]	Compound
5.3	CS(=O)(=O)NC(=O)c1ccc(Oc2ccccc2-c2ccccc2)cc1 [Example 268, 4-(biphenyl-2-yloxy)-N-(methylsulfonyl)benzamide]
5	COc1ccc(Cl)cc1Oc1cc(F)c(C(=O)NS(C)(=O)=O)cc1F [Example 67, 4-(5-chloro-2-methoxyphenoxy)-2,5-difluoro-N-(methylsulfonyl)benzamide]
4.2	COc1c(C(=O)NS(C)(=O)=O)ccc(Oc2ccc(Cl)c(C(F)(F)F)c2)c1F [Example 78, 4-(4-chloro-3-(trifluoromethyl)phenoxy)-3-fluoro-2-methoxy-N-(methylsulfonyl)benzamide]
3.3	Cn1nc(C(F)(F)F)cc1-c1ccc(Oc2ccc(C(=O)NS(C)(=O)=O)cc2)cc1 [Example 312, N-(methylsulfonyl)-4-{4-[1-methyl-3-(trifluoromethyl)-1H-pyrazol-5-yl]phenoxy}benzamide]
2.8	Cc1ccccc1Oc1ccc(C(=O)NS(C)(=O)=O)cc1Cl [Example 256, 3-chloro-4-(2-methylphenoxy)-N-(methylsulfonyl)benzamide]
2.5	COc1cc(Cl)ccc1Cc1cc(F)c(C(=O)NS(C)(=O)=O)cc1F [Example 319, 4-(4-Chloro-2-methoxybenzyl)-2,5-difluoro-N-(methylsulfonyl)benzamide]
1.6	CS(=O)(=O)NC(=O)c1ccc(Cc2cccc(OC(F)(F)F)c2)cc1 [Example 316, N-(Methylsulfonyl-1)-4-[3-(trifluoromethoxy)benzyl]benzamide]
1.5	CS(=O)(=O)NC(=O)c1ccc(Cc2ccc(Cl)c(Cl)c2)cc1 [Example 315, 4-(3,4-Dichlorobenzyl)-N-(methylsulfonyl)benzamide]
1.4	CS(=O)(=O)NC(=O)c1ccc(Oc2ccc(Cl)c(Cl)c2)cc1 [Example 182, 4-(3,4-dichlorophenoxy)-N-(methylsulfonyl)benzamide]
1.3	CS(=O)(=O)NC(=O)c1ccc(Oc2ccc(OCc3ccccc3)cc2)cc1 [Example 178, 4-[4-(benzyloxy)phenoxy]-N-(methylsulfonyl)benzamide]
1.2	Cc1cc(Oc2cc(F)c(C(=O)NS(C)(=O)=O)cc2F)ccc1F [Example 145, 2,5-difluoro-4-(4-fluoro-3-methylphenoxy)-N-(methylsulfonyl)benzamide]
1.2	COc1cccc(Oc2cc(F)c(C(=O)NS(C)(=O)=O)cc2Cl)c1 [Example 289, 5-chloro-2-fluoro-4-(3-methoxyphenoxy)-N-(methylsulfonyl)benzamide]
0.52	Cc1ccc(Oc2cc(F)c(C(=O)NS(C)(=O)=O)cc2F)cc1Cl [Example 151, 4-(3-chloro-4-methylphenoxy)-2,5-difluoro-N-(methylsulfonyl)benzamide]
0.45	CS(=O)(=O)NC(=O)c1cc(F)c(Oc2ccc(Cl)c(Cl)c2)cc1F [Example 21, 4-(3,4-dichlorophenoxy)-2,5-difluoro-N-(methylsulfonyl)benzamide]
0.04	CS(=O)(=O)NC(=O)c1cc(Cl)c(Oc2ccc(Cl)c(C(F)(F)F)c2)cc1F [Example 16, 5-chloro-4-[4-chloro-3-(trifluoromethyl)phenoxy]-2-fluoro-N-(methylsulfonyl)benzamide]
0.032	CS(=O)(=O)NC(=O)c1cc(Cl)c(Oc2ccc(Cl)c(OC(F)(F)F)c2)cc1F [Example 17, 5-chloro-4-[4-chloro-3-(trifluoromethoxy)phenoxy]-2-fluoro-N-(methylsulfonyl)benzamide]
